Values of other authors as cited in patent publication US20220288212A1, “FULLERENE P[…] AND METHODS” (Sinapu LLC, priority 2021, published 2022).

Key:
[1] = minimum of from 2.5 to 3 grams of EGCG ingested per day
[2] = room temperature

For `O=C(O[C@@H]1Cc2c(O)cc(O)cc2O[C@@H]1c1cc(O)c(O)c(O)c1)c1cc(O)c(O)c(O)c1` [EGCG, epigallocatechin gallate], the blood serum concentration [1] is listed as 100 to 1000 nM and the “maximum solubility in water” value [2] is listed as 92 grams per liter.
